In patent US20220089575A1, “FARNESOID X RECEPTOR AGONISTS AND USES THEREOF” (Metacrine, Inc., priority 2017, published 2022):

Target: T1, hFXR (Homo sapiens, UniProt Q96RI1)
T1 construct: expressed in transfected cells; host or cells: CV-1 cells
T1 sequence (Q96RI1 1-486): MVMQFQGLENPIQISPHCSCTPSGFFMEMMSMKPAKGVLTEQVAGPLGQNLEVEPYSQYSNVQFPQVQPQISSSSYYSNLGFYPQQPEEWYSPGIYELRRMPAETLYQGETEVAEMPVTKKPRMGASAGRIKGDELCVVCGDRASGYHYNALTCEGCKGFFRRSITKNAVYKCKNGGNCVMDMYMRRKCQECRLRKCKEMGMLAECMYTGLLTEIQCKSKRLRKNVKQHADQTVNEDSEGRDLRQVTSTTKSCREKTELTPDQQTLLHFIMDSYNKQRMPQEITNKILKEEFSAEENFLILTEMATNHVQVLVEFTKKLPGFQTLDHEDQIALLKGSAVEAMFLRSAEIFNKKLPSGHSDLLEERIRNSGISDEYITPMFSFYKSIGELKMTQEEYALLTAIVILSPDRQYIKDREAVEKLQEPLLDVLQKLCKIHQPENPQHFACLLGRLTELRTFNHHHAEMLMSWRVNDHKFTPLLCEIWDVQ
T1 sequence (P19793 1-462 partner): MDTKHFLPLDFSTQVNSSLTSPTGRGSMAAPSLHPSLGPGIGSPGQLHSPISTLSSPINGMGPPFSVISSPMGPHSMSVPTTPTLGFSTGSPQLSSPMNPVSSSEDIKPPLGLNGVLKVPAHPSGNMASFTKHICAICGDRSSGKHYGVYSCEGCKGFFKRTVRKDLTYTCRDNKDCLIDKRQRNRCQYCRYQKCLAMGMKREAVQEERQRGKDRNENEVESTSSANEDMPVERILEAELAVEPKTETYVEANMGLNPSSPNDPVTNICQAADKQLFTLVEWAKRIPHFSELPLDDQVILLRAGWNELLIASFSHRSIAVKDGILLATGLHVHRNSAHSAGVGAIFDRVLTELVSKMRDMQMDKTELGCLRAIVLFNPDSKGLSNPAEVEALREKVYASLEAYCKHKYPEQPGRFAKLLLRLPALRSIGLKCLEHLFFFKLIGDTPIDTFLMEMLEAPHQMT
Test: In Vitro FXR Assay (TK): TK-ECRE-luc reporter in transfected CV-1 cells
Type: cell-based
Conditions: 18 hrs, luminescence, maximum efficacy of <25% of the Fexarmine control classified as '+'
Method in brief: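 Reporter transactivation by hFXR was measured in CV-1 cells carrying hRXR and a TK-ECRE-luc construct, with compound treatment for 18 h before lysis and luminescence detection.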

| Structure (SMILES) | EC50 [nM] |
| --- | --- |
| COc1ncc(-c2cccc(N(C[C@H]3CC[C@H](c4ccc(OC)c(C)c4)CC3)C(=O)[C@H]3CC[C@H](OCCO)CC3)c2)s1 [Compound 13.03, trans-4-(2-Hydroxyethoxy)-N-((trans-4-(4-methoxy-3-methylphenyl)cyclohexyl)methyl)-N-(3-(2-methoxythiazol-5-yl)phenyl)cyclohexanecarboxamide] | ≤ 250 |
| COc1ncc(-c2cccc(N(C[C@H]3CC[C@H](c4ccc(OC)c(C)c4)CC3)C(=O)[C@H]3CC[C@H](OCCCO)CC3)c2)s1 [Compound 13.04, trans-4-(3-Hydroxypropoxy)-N-((trans-4-(4-methoxy-3-methylphenyl)cyclohexyl)methyl)-N-(3-(2-methoxythiazol-5-yl)phenyl) cyclohexanecarboxamide] | ≤ 250 |
| COc1ccc([C@H]2CC[C@H](CN(c3cccc(-c4cnc(C5CC5)s4)c3)C(=O)[C@H]3CC[C@H](OCCN(C)C)CC3)CC2)cc1C [Compound 13.05, trans-N-(3-(2-Cyclopropylthiazol-5-yl)phenyl)-4-(2-(dimethylamino)ethoxy)-N-((trans-4-(4-methoxy-3-methylphenyl)cyclohexyl)methyl) cyclohexanecarboxamide] | 250 to 1000 |
| CCOC(=O)C[C@H]1CC[C@H](C(=O)N(C[C@H]2CC[C@H](c3ccc(OC)c(C)n3)CC2)c2cccc(-c3cnn(C4CC4)c3)c2)CC1 [Compound 14, Ethyl 2-(trans-4-((3-(1-cyclopropyl-1H-pyrazol-4-yl)phenyl)((trans-4-(5-methoxy-6-methylpyridin-2-yl)cyclohexyl)methyl)carbamoyl)cyclohexyl)acetate] | ≤ 250 |
| COc1ccc([C@H]2CC[C@H](CN(c3cccc(-c4cnn(C5CC5)c4)c3)C(=O)[C@H]3CC[C@H](CO)CC3)CC2)cc1C [Compound 15, trans-N-(3-(1-Cyclopropyl-1H-pyrazol-4-yl)phenyl)-4-(hydroxymethyl)-N-((trans-4-(4-methoxy-3-methylphenyl)cyclohexyl)methyl) cyclohexanecarboxamide] | ≤ 250 |
| COc1ncc(-c2cccc(N(C[C@H]3CC[C@H](c4ccc(OC)c(C)c4)CC3)C(=O)[C@H]3CC[C@H](CO)CC3)c2)s1 [Compound 15.01, trans-4-(Hydroxymethyl)-N-((trans-4-(4-methoxy-3-methylphenyl)cyclohexyl)methyl)-N-(3-(2-methoxythiazol-5-yl)phenyl)cyclohexanecarboxamide] | ≤ 250 |
| COc1ccc([C@H]2CC[C@H](CN(c3cccc(-c4cnc(C5CC5)s4)c3)C(=O)[C@H]3CC[C@H](CO)CC3)CC2)cc1C [Compound 15.02, trans-N-(3-(2-Cyclopropylthiazol-5-yl)phenyl)-4-(hydroxymethyl)-N-((trans-4-(4-methoxy-3-methylphenyl)cyclohexyl)methyl) cyclohexanecarboxamide] | ≤ 250 |
| COc1ccc([C@H]2CC[C@H](CN(c3cc(-c4cnn(C(C)C)c4)ccn3)C(=O)[C@H]3CC[C@H](CO)CC3)CC2)nc1C [Compound 15.03, trans-4-(Hydroxymethyl)-N-(4-(1-isopropyl-1H-pyrazol-4-yl)pyridin-2-yl)-N-((trans-4-(5-methoxy-6-methylpyridin-2-yl)cyclohexyl)methyl) cyclohexanecarboxamide] | ≤ 250 |
| COc1ccc([C@H]2CC[C@H](CN(c3cc(-c4coc(C5CC5)n4)ccn3)C(=O)[C@H]3CC[C@H](CO)CC3)CC2)nc1C [Compound 15.04, trans-N-(4-(2-Cyclopropyloxazol-4-yl)pyridin-2-yl)-4-(hydroxymethyl)-N-((trans-4-(5-methoxy-6-methylpyridin-2-yl)cyclohexyl)methyl) cyclohexanecarboxamide] | ≤ 250 |
| CN(C)c1ccc([C@H]2CC[C@H](CN(c3cccc(-c4cnc(C5CC5)s4)c3)C(=O)[C@H]3CC[C@H](C(=O)O)CC3)CC2)cn1 [Compound 16, trans-4-((3-(2-Cyclopropylthiazol-5-yl)phenyl)((trans-4-(6-(dimethylamino)pyridin-3-yl)cyclohexyl)methyl)carbamoyl)cyclohexanecarboxylic acid] | ≤ 250 |
| COc1ccc([C@H]2CC[C@H](CN(c3cccc(-c4cnc(C5CC5)s4)c3)C(=O)[C@H]3CC[C@H](C(=O)O)CC3)CC2)cc1C [Compound 17, trans-4-((3-(2-Cyclopropylthiazol-5-yl)phenyl)((trans-4-(4-methoxy-3-methylphenyl)cyclohexyl)methyl)carbamoyl)cyclohexanecarboxylic acid] | ≤ 250 |
| COc1ncc(-c2cccc(N(C[C@H]3CC[C@H](c4ccc(OC)c(C)c4)CC3)C(=O)[C@H]3CC[C@H](C(=O)O)CC3)c2)s1 [Compound 17.01, trans-4-(((trans-4-(4-Methoxy-3-methylphenyl)cyclohexyl)methyl)(3-(2-methoxythiazol-5-yl)phenyl)carbamoyl)cyclohexanecarboxylic acid] | ≤ 250 |
| COc1ncc(-c2cccc(N(C[C@H]3CC[C@H](c4ccc(OC)c(C)c4)CC3)C(=O)C34CCC(C(=O)O)(CC3)CC4)c2)s1 [Compound 17.02, 4-(((trans-4-(4-Methoxy-3-methylphenyl)cyclohexyl)methyl)(3-(2-methoxythiazol-5-yl)phenyl)carbamoyl)bicyclo[2.2.2]octane-1-carboxylic acid] | ≤ 250 |
| COc1ccc([C@H]2CC[C@H](CN(c3cccc(-c4cnc(C5CC5)s4)c3)C(=O)[C@H]3CC[C@H](C(=O)O)CC3)CC2)cc1Cl [Compound 17.03, trans-4-(((trans-4-(3-Chloro-4-methoxyphenyl)cyclohexyl)methyl)(3-(2-cyclopropylthiazol-5-yl)phenyl)carbamoyl)cyclohexanecarboxylic acid] | ≤ 250 |
| Cn1nc(F)c2cc([C@H]3CC[C@H](CN(c4cccc(-c5cnc(C6CC6)s5)c4)C(=O)[C@H]4CC[C@H](C(=O)O)CC4)CC3)ccc21 [Compound 17.04, trans-4-((3-(2-Cyclopropylthiazol-5-yl)phenyl)((trans-4-(3-fluoro-1-methyl-1H-indazol-5-yl)cyclohexyl)methyl)carbamoyl) cyclohexanecarboxylic acid] | ≤ 250 |
| COc1ccc(C23CCC(CN(c4cccc(-c5cnc(C6CC6)s5)c4)C(=O)[C@H]4CC[C@H](C(=O)O)CC4)(CC2)CC3)cc1C [Compound 17.05, trans-4-((3-(2-Cyclopropylthiazol-5-yl)phenyl)((4-(4-methoxy-3-methylphenyl)bicyclo[2.2.2]octan-1-yl)methyl)carbamoyl) cyclohexanecarboxylic acid] | ≤ 250 |
| CN(C)c1ccc(C23CCC(CN(c4cccc(-c5cnc(C6CC6)s5)c4)C(=O)[C@H]4CC[C@H](C(=O)O)CC4)(CC2)CC3)cn1 [Compound 17.06, trans-4-((3-(2-Cyclopropylthiazol-5-yl)phenyl)((4-(6-(dimethylamino)pyridin-3-yl)bicyclo[2.2.2]octan-1-yl)methyl)carbamoyl) cyclohexanecarboxylic acid] | ≤ 250 |
| COc1ccc(C23CCC(CN(c4cc(-c5cnc(C6CC6)s5)ccn4)C(=O)[C@H]4CC[C@H](C(=O)O)CC4)(CC2)CC3)cc1C [Compound 17.07, trans-4-((4-(2-Cyclopropylthiazol-5-yl)pyridin-2-yl)((4-(4-methoxy-3-methylphenyl)bicyclo[2.2.2]octan-1-yl)methyl)carbamoyl) cyclohexanecarboxylic acid] | ≤ 250 |
| COc1ccc([C@H]2CC[C@H](CN(c3cccc(-c4cnc(C5CC5)s4)c3)C(=O)[C@H]3CC[C@H](C(=O)O)CC3)CC2)nc1C [Compound 17.08, trans-4-((3-(2-Cyclopropylthiazol-5-yl)phenyl)((trans-4-(5-methoxy-6-methylpyridin-2-yl)cyclohexyl)methyl)carbamoyl) cyclohexanecarboxylic acid] | ≤ 250 |
| COc1ccc([C@H]2CC[C@H](CN(c3cc(-c4cnc(C5CC5)s4)ccn3)C(=O)[C@H]3CC[C@H](C(=O)O)CC3)CC2)cc1C [Compound 17.09, trans-4-((4-(2-Cyclopropylthiazol-5-yl)pyridin-2-yl)((trans-4-(4-methoxy-3-methylphenyl)cyclohexyl)methyl)carbamoyl)cyclohexanecarboxylic acid] | ≤ 250 |
| COc1ccc([C@H]2CC[C@H](CN(c3cc(-c4cnc(C5CC5)s4)ccn3)C(=O)[C@H]3CC[C@H](C(=O)O)CC3)CC2)nc1C [Compound 17.10, trans-4-((4-(2-Cyclopropylthiazol-5-yl)pyridin-2-yl)((trans-4-(5-methoxy-6-methylpyridin-2-yl)cyclohexyl)methyl)carbamoyl) cyclohexanecarboxylic acid] | 250 to 1000 |
